Measured values as given in article PMC12951568, “Identifying Structural Factors Governing the Photodynamic Activity of Phthalocyanines” (Journal of Medicinal Chemistry, 2026).
Where two headings read alike, the source gives them in different places.

Key:
[1] = Quantum yield of singlet oxygen production, comparative method with DPBF scavenger; assay type: physicochemical; details: in DMF, ZnPc as reference
Protocol: Eight μL of the 100 μM stock solution of the dye in DMF (or DMF + water or water; see above) was added. A xenon lamp (100 W, ozone free XE DC short arc lamp, New port) was used to irradiate the sample while stirring. The incident light was filtered through a water filter (6 cm) and cut off filter OG530 eliminating heat and light under 523 nm, respectively. […] The decrease of DPBF in solution with irradiation time was monitored at 415 nm. The values of ΦΔ of the dyes were calculated by the following equation: φΔS=φΔ[…] is the slope of the plot of the dependence of ln([…] 0 and A t being the absorbances of the DPBF at 415 nm before irradiation and after irradiation time t, respectively. I aT is the total amount of light absorbed by the dye sample. Superscripts R and S indicate the reference and sample, respectively. I aT is calculated as a sum of intensities of the absorbed light I a at wavelengths from 523 to 850 nm (step 0.5 nm). Light under 523 nm is completely filtered by an OG530 filter, and light above 850 nm is not absorbed by the studied dye sample. I a at a given wavelength is calculated using Beer-Lambert'[…]) where I 0 is transmittance of the filter at the given wavelength and A is the absorbance of the dye at this wavelength. All experiments were performed three times, and the data presented is the mean value of the three obtained results with estimated error ± 10%.

[2] = Log P, partition between n-octanol and PBS; assay type: physicochemical; details: partition coefficient between 1-octanol and PBS
Protocol: 400 μL portion of n-octanol and 400 μL of PBS buffer were mixed in a plastic Eppendorf vial. Then, 20 μL of the 100 μM stock solution of the sample (see above) was added to this mixture, vortexed for 5 min at rt, and then centrifuged for 10 min (10 000 rpm, rt). 50 μL of each of these layers was taken into 2.5 mL of DMF in a quartz cuvette, and their emission spectra (excitation wavelengths in Table ) were recorded. The log P value was then computed using the area under the curve of the emission spectra of n-octanol (F oct) and PBS buffer (F PBS) layers as follows: logP=log(Foct/FPBS) Triplicate measurements were performed, and the data reported are the mean of the obtained results.

[3] = Absorption and fluorescence emission spectra in DMF; assay type: physicochemical; details: in DMF
Protocol: An absorption spectrum of 2.475 mL of solvent (water, DMF, or PBS) was taken (i.e., absorption spectrum of baseline); then, 25 μL of stock solution was added to reach the final concentration of 1 μM in the cuvette, and the absorption and emission spectra were taken. Baseline of the solvent was subtracted from the obtained absorption spectrum to get the final absorption spectrum of the sample.

[4] = Fluorescence quantum yield, comparative method; assay type: physicochemical; details: in DMF; ZnPc as reference
Protocol: The fluorescence quantum yields (ΦF) were determined by a comparative method with ZnPc as the reference (ΦF = 0.32 in THF). The ΦF values were calculated using the following formula: ϕFS=ϕFR(F^S/F^R)(1−10^−A^R/1−10^−A^S)(η^S/η^R)^2 where F is the integrated area under the emission spectrum and A is the absorbance at the excitation wavelength. Superscripts R and S indicate the reference and sample, respectively. η stands for the refractive index of the solvent. Absorption in the Q-band was kept below 0.05 to eliminate the inner filter effect. Excitation wavelengths were the same as those used for emission spectra (see above). The emission wavelengths were set to their emission maxima to avoid exceeding the detector limit with stimated error ± 15%.

[5] = Fluorescence lifetime in DMF; assay type: physicochemical
Source text: 1 Photophysical Data of Investigated Derivatives in DMF ^a | column: τF1/ns; τF2/ns

[6] = tested on: HeLa (human cervical carcinoma); details: 12 h incubation, Xe-lamp 15 min, λ > 570 nm, 11.2 J/cm^2; mean ± SD; determined previously under the same conditions at the same workplace and published; ref number not given; read-out: EC50 (nM) HeLa; cited from earlier work
[7] = tested on: SK-MEL-28 (human skin melanoma); assay: Photodynamic activity (phototoxicity, neutral red uptake) on SK-MEL-28; assay type: cell-based; details: 12 h incubation, Xe-lamp 15 min, λ > 570 nm, 11.2 J/cm^2, mean ± SD, t.w. = this work
Protocol: (§1) Detailed in vitro studies involving subcellular localization and determination of the EC50 in three different cell lines (human cervical carcinoma–HeLa, human breast adenocarcinoma–MCF-7, and human skin melanoma–SK-MEL-28) were performed. A broadband light source (ozone-free 450 W Xe-lamp, Newport) equipped with the long-pass filter Schott OG570 was used (12.4 mW/cm^2, 15 min, 11.2 J/cm^2).
(§2) For the cytotoxicity experiments (phototoxicity), cells were seeded at 100 μL per well into 96-well plates (TPP, Switzerland) at a density of 7.5 × 10^3 (HeLa) or 1.0 × 10^4 (MCF-7 and SK-MEL-28) cells per well. Cells were left to grow for 24 h (until they reached confluency) in a controlled environment of a CO2 incubator (37 °C, 5% CO2 atmosphere, constant high humidity). Subsequently, studied compounds were added in a wide concentration range and incubated with the cells for 12 h. Cells were washed; fresh cell culture medium was added, and the cells were irradiated using a 450 W Xe lamp (Newport, USA). The lamp was equipped with a long pass filter (Newport OG570) and an 8 cm water filter (λ > 570 nm, 12.4 mW/cm^2, 15 min, 11.2 J/cm^2). Cellular viability was assessed after an additional 24 h by the neutral red (NR; Sigma, Merck, USA) uptake assay. At least three independent experiments, each in triplicate, were performed. The soluble NR was measured at λ = 540 nm using a Tecan Infinite 200 M plate reader (Tecan, Austria). The viability of each experimental group was expressed as the percentage of the untreated cells (100% viability) after subtraction of the signal from cells treated with a lethal dose of hydrogen peroxide (0% viability). […] EC50 values were calculated, and graphs were created by using GraphPad Prism 10.3.1 (Graph Pad software, USA).

[8] = tested on: MCF-7 (human breast adenocarcinoma); set-up: method as in number not printed in Table 2; details: 12 h incubation, Xe-lamp 15 min, λ > 570 nm, 11.2 J/cm^2; mean ± SD; determined previously under the same conditions at the same workplace and published; ref number not given; cited from earlier work
[9] = tested on: HeLa (human cervical carcinoma); assay: Photodynamic activity (phototoxicity, neutral red uptake) on HeLa; assay type: cell-based; details: 12 h incubation, Xe-lamp 15 min, λ > 570 nm, 11.2 J/cm^2, mean ± SD, t.w. = this work
Protocol: as §1, §2

[10] = target: bovine serum albumin (BSA) (Bos taurus, UniProt P02769); assay: Interaction with bovine serum albumin (absorption and emission spectra in PBS); assay type: binding; details: 1 μM Pc in PBS, BSA 17.5, 35 and 100 μM
[11] = tested on: MCF-7 (human breast adenocarcinoma); assay: Photodynamic activity (phototoxicity, neutral red uptake) on MCF-7; assay type: cell-based; details: 12 h incubation, Xe-lamp 15 min, λ > 570 nm, 11.2 J/cm^2, mean ± SD, t.w. = this work
Protocol: as §1, §2

Sequence of bovine serum albumin (BSA) (P02769 25-607): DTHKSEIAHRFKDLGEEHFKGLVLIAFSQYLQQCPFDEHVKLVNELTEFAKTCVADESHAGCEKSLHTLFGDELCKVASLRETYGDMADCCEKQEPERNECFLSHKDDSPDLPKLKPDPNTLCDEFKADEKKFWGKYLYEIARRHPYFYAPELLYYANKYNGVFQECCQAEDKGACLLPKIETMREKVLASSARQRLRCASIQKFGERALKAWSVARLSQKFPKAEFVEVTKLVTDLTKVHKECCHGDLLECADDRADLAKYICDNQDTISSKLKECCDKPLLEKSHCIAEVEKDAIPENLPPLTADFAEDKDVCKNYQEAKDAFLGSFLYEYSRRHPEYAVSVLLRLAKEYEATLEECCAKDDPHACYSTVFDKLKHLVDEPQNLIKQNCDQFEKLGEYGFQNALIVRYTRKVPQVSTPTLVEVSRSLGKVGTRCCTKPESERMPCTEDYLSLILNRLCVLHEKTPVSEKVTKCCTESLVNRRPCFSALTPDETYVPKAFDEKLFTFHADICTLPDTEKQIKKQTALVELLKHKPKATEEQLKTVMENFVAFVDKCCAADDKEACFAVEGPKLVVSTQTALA

Row | Compound | ΦΔ, quantum yield of singlet oxygen production [1] | Log P [2] | ε, extinction coefficient [3] | λA, absorption maximum in the Q-band [3] | λF, fluorescence emission maximum [3] | ΦF, fluorescence quantum yield [4] | τF1, fluorescence lifetime (relative amplitude in brackets) [5] | EC50 [6] | EC50 [7] | EC50 [8] | logP ([2]; n-octanol/PBS buffer) | τF2, fluorescence lifetime (relative amplitude in brackets) [5] | EC50 ([9]; Homo sapiens, HeLa, light or radiation study) | Interaction with BSA: disaggregation/monomerization and changes in absorption and fluorescence emission spectra [10] | EC50 ([11]; Homo sapiens, MCF7, light or radiation study) | EC50 ([7]; Homo sapiens, SK-MEL-28, light or radiation study) | EC50 [9] | EC50 [11]
1 | Cc1cc(Cn2cc[n+](C)c2)c(Oc2c3c(c(C)c(C)[n+]2C)C2=NC3=Nc3c4cc(SC(C)(C)C)c(SC(C)(C)C)cc4c4[n]3[Zn][n]3c(c5cc(SC(C)(C)C)c(SC(C)(C)C)cc5c3=N2)=NC2=NC(=N4)c3cc(SC(C)(C)C)c(SC(C)(C)C)cc32)c(Cn2cc[n+](C)c2)c1.[I-].[I-].[I-] [C2Zn] | 0.70 | 1.38 | 177 880 M^–1cm^–1 | 708 nm | 718 nm | 0.30 | 1.67 ns | 105 ± 34 nM | 62 ± 11 nM | 65 ± 8 nM | – | – | – | – | – | – | – | –
2 | O=S(=O)([O-])c1ccc2c(c1)-c1nc-2nc2[nH]c(nc3nc(nc4[nH]c(n1)c1ccccc41)-c1ccc(S(=O)(=O)[O-])cc1-3)c1ccc(S(=O)(=O)[O-])cc21.[Na+].[Na+].[Na+] [A9H] | 0.19 | – | 104 650 M^–1cm^–1 | – | 703 nm | 0.22 | 1.97 (18%) ns | – | – | – | -1.35 | 3.87 (82%) ns | 85 ± 7 nM | partial | 347 ± 125 nM | 300 ± 77 nM | – | –
3 | CSc1cc2c(cc1SC)C1=Nc3c4cc(SC)c(SC)cc4c4[n]3[Zn][n]3c(c5cc(SC)c(SC)cc5c3=NC2=N1)=NC1=NC(=N4)c2cc(Oc3c(Cn4cc[n+](C)c4)cc(C)cc3Cn3cc[n+](C)c3)c(Oc3c(Cn4cc[n+](C)c4)cc(C)cc3Cn3cc[n+](C)c3)cc21.[I-].[I-].[I-].[I-] [C4Zn] | 0.44 | 0.62 | 106 360 M^–1cm^–1 | 697 nm | 709 nm | 0.21 | – | 79 ± 20 nM | 108 ± 24 nM | 61 ± 9 nM | – | – | – | – | – | – | – | –
4 | NCCc1ccc(Oc2cccc3c2C2=NC3=Nc3c4ccccc4c4[n]3[Zn][n]3c(c5ccccc5c3=N2)=NC2=NC(=N4)c3ccccc32)cc1 [C15Zn] | 0.53 | 3.32 | 136 590 M^–1cm^–1 | 675 nm | 684 nm | 0.20 | 1.23 (7%) ns | – | 25 ± 6 nM | – | – | 2.96 (93%) ns | – | Partial monomerization | – | – | 74 ± 22 nM | 50 ± 8 nM
